Reference: US5528046A, “Method and device for determining the location and number of fluorescent molecules” (Hamamatsu Photonics K.K., priority 1992, dated 1996)

Tests used:
[1] = target: streptavidin (SA), tetramer (Streptomyces avidinii, UniProt P22629); conditions: cited from earlier work
[2] = target: bovine serum albumin (Bos taurus, UniProt P02769); assay: Affinity of bovine serum albumin for FLB (FLB absorption spectrum); format: binding; conditions: causes no changes to FLB spectrum
From the text: Foster and Konig report that is has been found based on changes of absorption spectra of some organic dye molecules (fluorescent molecules) containing a fluorescent substrate in water that the organic dye molecules form dimers at high concentration (10^-3 -10^-1 M). Koizumi and Mataga report a change of absorption spectrum in an aqueous solution containing fluorescent molecules in the presence of electrolytic polymers. Based on these studies, it is considered that changes of the spectra are caused by the cohesive effect of the fluorescent molecules to the polymers. Considering these past studies and the bonding between SA and B due to their high affinity, it is considered that similarly sufficient local adhesion effects of FLB to SA can be present. This is further optical evidence of the interaction between SA and FLB. For example, bovine serum albumin, which has no affinity with FLB, causes no changes to FLB spectrum.

Sequence of bovine serum albumin (P02769 25-607): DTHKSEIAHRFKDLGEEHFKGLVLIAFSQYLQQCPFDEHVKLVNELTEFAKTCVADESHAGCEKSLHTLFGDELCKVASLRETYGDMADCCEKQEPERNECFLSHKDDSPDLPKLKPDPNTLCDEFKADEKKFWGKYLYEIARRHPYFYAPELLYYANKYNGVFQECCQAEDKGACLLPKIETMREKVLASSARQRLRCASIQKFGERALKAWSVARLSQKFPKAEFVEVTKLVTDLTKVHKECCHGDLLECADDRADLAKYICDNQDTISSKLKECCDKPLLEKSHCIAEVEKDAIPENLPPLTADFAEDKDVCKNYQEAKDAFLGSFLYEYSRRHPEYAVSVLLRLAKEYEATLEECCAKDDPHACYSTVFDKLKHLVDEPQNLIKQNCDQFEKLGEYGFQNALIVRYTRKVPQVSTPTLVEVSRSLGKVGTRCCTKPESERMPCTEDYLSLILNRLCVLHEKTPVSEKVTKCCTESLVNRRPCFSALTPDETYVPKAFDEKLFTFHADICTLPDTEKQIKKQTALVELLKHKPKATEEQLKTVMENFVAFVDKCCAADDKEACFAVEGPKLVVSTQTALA
Sequence of streptavidin (SA), tetramer (P22629 25-183): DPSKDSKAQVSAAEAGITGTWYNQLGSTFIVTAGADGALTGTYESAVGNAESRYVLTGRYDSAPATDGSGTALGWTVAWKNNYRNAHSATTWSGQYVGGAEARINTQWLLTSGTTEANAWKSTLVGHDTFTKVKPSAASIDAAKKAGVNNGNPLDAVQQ

SMILES | lifetime of the SA/B complex [1] | affinity with FLB [2]
O=C(O)CCCC[C@@H]1SC[C@@H]2NC(=O)N[C@@H]21 [B, biotin] | about 2.9 days | –
O=C(CCCCCNC(=O)CCCC[C@@H]1SC[C@@H]2NC(=O)N[C@@H]21)NCCCCCNC(=S)Nc1ccc2c(c1)C(=O)OC21c2ccc(O)cc2Oc2cc(O)ccc21 [FLB, fluorescein biotin] | – | no affinity
